Among the data in patent publication US8497266B2, “3-(3-pyrimidin-2-ylbenzyl)-1,2,4-triazolo[4,3-b]pyridazine derivatives as MET kinase inhibitors” (Merck Patent GmbH, priority 2008, dated 2013) are IC50 values, retold here.

Assay [1] addresses T1, Met kinase (Homo sapiens, UniProt P08581). Put plainly: Met kinase inhibition, flashplate method (enzyme). The format is biochemical. More on the design: 6His (N); purchased Upstate 14-526; host or cells: Sf21 insect cells (S. frugiperda), baculovirus. From the text: According to the manufacturer's data (Met, active, Upstate, catalogue No. 14-526), Met kinase is expressed for the purposes of protein production in insect cells (Sf21; S. frugiperda) and subsequent affinity-chromatographic purification as “N-terminal 6His-tagged” recombinant human protein in a baculovirus expression vector.
The test plates used are 96-well Flashplate® microtitre plates from Perkin Elmer (Cat. No. SMP200). The components of the kinase reaction described below are pipetted into the assay plate. The Met kinase and the substrate poly Ala-Glu-Lys-Tyr, (pAGLT, 6:2:5:1), are incubated for 3 hrs at room temperature with radioactively labelled ^33P-ATP in the presence and absence of test substances in a total volume of 100 μl. The reaction is terminated using 150 μl of a 60 mM EDTA solution. After incubation for a further 30 min at room temperature, the supernatants are filtered off with suction, and the wells are washed three times with 200 μl of 0.9% NaCl solution each time. The measurement of the bound radioactivity is carried out by means of a scintillation measuring instrument (Topcount NXT, Perkin-Elmer).
The full value used is the inhibitor-free kinase reaction. This should be approximately in the range 6000-9000 cpm. The pharmacological zero value used is staurosporin in a final concentration of 0.1 mM. The inhibitory values (IC50) are determined using the RS1_MTS program.
Kinase reaction conditions per well: • 30 μl of assay buffer • 10 μl of substance to be tested in assay buffer with 10% of DMSO • 10 μl of ATP (final concentration 1 μM cold, 0.35 μCi of ^33P-ATP) • 50 μl of Met kinase/substrate mixture in assay buffer; • (10 ng of enzyme/well, 50 ng of pAGLT/well) • Solutions used: • Assay buffer: • 50 mM HEPES • 3 mM magnesium chloride • 3 μM sodium orthovanadate • 3 mM manganese(II) chloride • 1 mM dithiothreitol (DTT) • pH=7.5 (to be set using sodium hydroxide) • Stop solution: • 60 mM Titriplex III (EDTA) • ^33P-ATP: Perkin-Elmer; • Met kinase: Upstate, Cat. No. 14-526, Stock 1 μg/10 μl; spec. activity 954 U/mg; • Poly-Ala-Glu-Lys-Tyr, 6:2:5:1: Sigma Cat. No. P1152 In-Vivo Tests
Target sequence in this assay (P08581 956-1390 limits assumed): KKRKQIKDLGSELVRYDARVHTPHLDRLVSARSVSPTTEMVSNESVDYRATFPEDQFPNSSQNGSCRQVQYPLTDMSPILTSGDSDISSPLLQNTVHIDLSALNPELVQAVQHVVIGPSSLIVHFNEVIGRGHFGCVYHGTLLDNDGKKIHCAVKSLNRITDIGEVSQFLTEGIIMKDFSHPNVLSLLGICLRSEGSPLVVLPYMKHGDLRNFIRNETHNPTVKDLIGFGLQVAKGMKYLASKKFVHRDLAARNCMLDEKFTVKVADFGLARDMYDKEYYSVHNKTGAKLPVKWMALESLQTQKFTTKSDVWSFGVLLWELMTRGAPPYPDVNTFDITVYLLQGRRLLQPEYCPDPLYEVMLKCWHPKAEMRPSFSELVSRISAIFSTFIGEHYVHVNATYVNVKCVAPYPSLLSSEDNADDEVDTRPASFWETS

Assay [2] has as its target T1, Met kinase. Put plainly: Met kinase inhibition (cell). Format: cell-based.
Target sequence in this assay (P08581 25-1390): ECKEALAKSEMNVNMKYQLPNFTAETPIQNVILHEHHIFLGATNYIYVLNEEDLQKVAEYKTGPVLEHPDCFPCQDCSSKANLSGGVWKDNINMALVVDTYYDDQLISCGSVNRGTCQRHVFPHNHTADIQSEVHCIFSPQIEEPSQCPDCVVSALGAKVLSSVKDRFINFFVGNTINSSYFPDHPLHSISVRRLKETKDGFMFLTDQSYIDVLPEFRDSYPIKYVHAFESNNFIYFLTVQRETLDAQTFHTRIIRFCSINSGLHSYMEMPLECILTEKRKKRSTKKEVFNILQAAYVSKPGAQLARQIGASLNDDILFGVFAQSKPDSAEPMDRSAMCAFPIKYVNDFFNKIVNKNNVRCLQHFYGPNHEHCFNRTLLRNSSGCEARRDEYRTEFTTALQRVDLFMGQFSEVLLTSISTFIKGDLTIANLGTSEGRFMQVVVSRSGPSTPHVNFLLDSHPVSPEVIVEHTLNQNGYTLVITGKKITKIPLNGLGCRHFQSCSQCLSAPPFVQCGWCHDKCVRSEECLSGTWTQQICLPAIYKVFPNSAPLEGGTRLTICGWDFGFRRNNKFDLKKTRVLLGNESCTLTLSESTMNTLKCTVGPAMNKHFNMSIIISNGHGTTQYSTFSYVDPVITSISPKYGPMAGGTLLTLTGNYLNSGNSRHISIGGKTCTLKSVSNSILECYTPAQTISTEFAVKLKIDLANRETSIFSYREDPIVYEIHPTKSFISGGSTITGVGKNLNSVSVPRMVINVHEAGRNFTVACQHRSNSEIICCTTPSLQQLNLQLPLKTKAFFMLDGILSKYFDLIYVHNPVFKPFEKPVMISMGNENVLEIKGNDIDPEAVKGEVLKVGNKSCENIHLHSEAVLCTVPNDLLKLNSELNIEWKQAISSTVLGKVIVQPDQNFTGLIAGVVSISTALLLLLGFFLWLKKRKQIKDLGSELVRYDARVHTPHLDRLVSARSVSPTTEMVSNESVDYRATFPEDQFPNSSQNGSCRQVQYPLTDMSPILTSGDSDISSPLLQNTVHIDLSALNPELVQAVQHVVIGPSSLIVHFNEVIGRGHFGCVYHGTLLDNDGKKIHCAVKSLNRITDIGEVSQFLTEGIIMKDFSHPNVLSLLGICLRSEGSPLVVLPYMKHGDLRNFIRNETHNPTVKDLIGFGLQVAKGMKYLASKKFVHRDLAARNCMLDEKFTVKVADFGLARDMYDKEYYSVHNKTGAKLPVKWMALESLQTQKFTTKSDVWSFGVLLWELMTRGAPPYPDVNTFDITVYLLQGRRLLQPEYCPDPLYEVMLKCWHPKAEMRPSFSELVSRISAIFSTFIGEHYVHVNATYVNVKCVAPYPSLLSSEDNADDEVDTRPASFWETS

Broadly, the IC50 is the concentration that gives 50% inhibition. On to `Cn1cc(-c2ccc3nnc(Cc4cccc(-c5ncc(Br)cn5)c4)n3n2)cn1` [Compound A1, 3-[3-(5-bromopyrimidin-2-yl)benzyl]-6-(1-methyl-1H-pyrazol-4-yl)-1,2,4-triazolo[4,3-b]pyridazine], for which the IC50 in assay [1] and in assay [2] was 1 to 100 nM each time.
Consider `Cn1cc(-c2ccc3nnc(Cc4cccc(-c5ncc(-c6cnn(CCN7CCCC7)c6)cn5)c4)n3n2)cn1` [Compound A2, 6-(1-methyl-1H-pyrazol-4-yl)-3-(3-{5-[1-(2-pyrrolidin-1-yl-ethyl)-1H-pyrazol-4-yl]pyrimidin-2-yl}benzyl)-1,2,4-triazolo[4,3-b]pyridazine], for which, in assay [2], the IC50 lay within 1 to 100 nM.
For the compound `Cn1cc(-c2ccc3nnc(C(F)(F)c4cccc(-c5ncc(Br)cn5)c4)n3n2)cn1` [Compound A3, 3-{[3-(5-bromopyrimidin-2-yl)phenyl]difluoromethyl}-6-(1-methyl-1H-pyrazol-4-yl)-1,2,4-triazolo[4,3-b]pyridazine], the IC50 in assay [1] and in assay [2] was 1 to 100 nM in each case.
`N#Cc1cccc(-c2ccc3nnc(C(F)(F)c4cccc(-c5ncc(Br)cn5)c4)n3n2)c1` [Compound A3a, 3-(3-{[3-(5-bromopyrimidin-2-yl)phenyl]difluoromethyl}-1,2,4-triazolo[4,3-b]-pyridazin-6-yl)benzonitrile]: the IC50 in assay [1] and in assay [2] was 1 to 100 nM throughout.
Regarding `Cn1cc(-c2ccc3nnc(C4(c5cccc(-c6ncc(Br)cn6)c5)CC4)n3n2)cn1` [Compound A4], the IC50 in assay [1] was in the range of 1 to 100 nM; in assay [2] it was 100 to 10000 nM.
In the case of `N#Cc1cccc(-c2ccc3nnc(Cc4cccc(-c5ncc(Br)cn5)c4)n3n2)c1` [Compound A5, 3-{3-[3-(5-bromopyrimidin-2-yl)benzyl]-1,2,4-triazolo[4,3-b]-pyridazin-6-yl}benzonitrile], the concentration for half-maximal inhibition (IC50) in assay [1] and in assay [2] was 1 to 100 nM in each case.
In the case of `Cc1ccc2nnc(Cc3cccc(-c4ncc(Br)cn4)c3)n2n1` [Compound A6], the IC50 in assay [1] lay within 1 to 100 nM; in assay [2] it was 100 to 10000 nM.
In the case of `Cn1cc(-c2ccc3nnc(C(F)(F)c4cccc(-c5ncc(-c6cnn(CCN7CCCC7)c6)cn5)c4)n3n2)cn1` [Compound A7], the IC50 in assay [1] and in assay [2] was 1 to 100 nM each time.
For the compound `Cn1cc(-c2ccc3nnc(C4(c5cccc(-c6ncc(-c7cnn(CCN8CCCC8)c7)cn6)c5)CC4)n3n2)cn1` [Compound A8], the IC50 in assay [1] and in assay [2] was 1 to 100 nM throughout.
Turning to `Cc1ccc2nnc(Cc3cccc(-c4ncc(-c5cnn(CCN6CCCC6)c5)cn4)c3)n2n1` [Compound A9], the IC50 in assay [1] and in assay [2] was 1 to 100 nM in each case.
As to `CN1CCN(c2cnc(-c3cccc(Cc4nnc5ccc(-c6cnn(C)c6)nn45)c3)nc2)CC1` [Compound A11, 3-{3-[5-(4-methylpiperazin-1-yl)pyrimidin-2-yl]benzyl}-6-(1-methyl-1H-pyrazol-4-yl)-1,2,4-triazolo[4,3-b]pyridazine], the IC50 in assay [1] and in assay [2] was 1 to 100 nM each time.
In the case of `Cn1cc(-c2ccc3nnc(C(F)(F)c4cccc(-c5ncc(OCCN6CCOCC6)cn5)c4)n3n2)cn1` [Compound A12, 3-(difluoro-{3-[5-(2-morpholin-4-ylethoxy)pyrimidin-2-yl]-phenyl}methyl)-6-(1-methyl-1H-pyrazol-4-yl)-1,2,4-triazolo[4,3-b]pyridazine], the IC50 in assay [1] and in assay [2] was 1 to 100 nM each time.
Turning to `CN1CCN(c2cnc(-c3cccc(C(F)(F)c4nnc5ccc(-c6cnn(C)c6)nn45)c3)nc2)CC1` [Compound A16], the IC50 in assay [1] and in assay [2] was 1 to 100 nM in each case.
As for `Cc1ccc2nnc(Cc3cccc(-c4ncc(N5CCN(C)CC5)cn4)c3)n2n1` [Compound A17], the IC50 in assay [1] and in assay [2] was 1 to 100 nM each time.
`Cc1ccc2nnc(C(F)(F)c3cccc(-c4ncc(OCCN5CCOCC5)cn4)c3)n2n1` [Compound A28, 3-(difluoro-{3-[5-(2-morpholin-4-ylethoxy)pyrimidin-2-yl]-phenyl}methyl)-6-methyl-1,2,4-triazolo[4,3-b]pyridazine] came in with an IC50 in assay [2] of 1 to 100 nM.
As to `Cn1cc(-c2ccc3nnc(Cc4cccc(-c5ncc(O)cn5)c4)n3n2)cn1` [Compound A30, 2-{3-[6-(1-methyl-1H-pyrazol-4-yl)-1,2,4-triazolo[4,3-b]pyridazin-3-yl-methyl]phenyl}pyrimidin-5-ol], the IC50 in assay [2] fell in the range of 100 to 10000 nM.
`COCCOc1cnc(-c2cccc(C(F)(F)c3nnc4ccc(-c5cnn(C)c5)nn34)c2)nc1` [Compound A31, 3-(difluoro-{3-[5-(2-methoxyethoxy)pyrimidin-2-yl]phenyl}methyl)-6-(1-methyl-1H-pyrazol-4-yl)-1,2,4-triazolo[4,3-b]pyridazine] showed an IC50 in assay [2] of 1 to 100 nM.
As to `Cn1cc(-c2ccc3nnc(C(F)(F)c4cccc(-c5ncc(OCCO)cn5)c4)n3n2)cn1` [Compound A32, 2-[2-(3-{difluoro-[6-(1-methyl-1H-pyrazol-4-yl)-1,2,4-triazolo[4,3-b]pyridazin-3-yl]methyl}phenyl)pyrimidin-5-yloxy]ethanol], the IC50 in assay [2] was in the range of 1 to 100 nM.
The same measure, in the same setting: under `COCCOc1cnc(-c2cccc(Cc3nnc4ccc(-c5cnn(C)c5)nn34)c2)nc1` [Compound A33, 3-{3-[5-(2-methoxyethoxy)pyrimidin-2-yl]benzyl}-6-(1-methyl-1H-pyrazol-4-yl)-1,2,4-triazolo[4,3-b]pyridazine] stands 100 to 10000 nM.
As for `Cn1cc(-c2ccc3nnc(Cc4cccc(-c5ncc(OCCO)cn5)c4)n3n2)cn1` [Compound A34, 2-(2-{3-[6-(1-methyl-1H-pyrazol-4-yl)-1,2,4-triazolo[4,3-b]pyridazin-3-ylmethyl]-phenyl}pyrimidin-5-yloxy)ethanol], the IC50 in assay [2] was 1 to 100 nM.
With `COc1cnc(-c2cccc(Cc3nnc4ccc(-c5cnn(C)c5)nn34)c2)nc1` [Compound A35, 3-[3-(5-methoxypyrimidin-2-yl)benzyl]-6-(1-methyl-1H-pyrazol-4-yl)-1,2,4-triazolo[4,3-b]pyridazine], the IC50 in assay [2] was in the range of 1 to 100 nM.
With `COCCCOc1cnc(-c2cccc(Cc3nnc4ccc(-c5cnn(C)c5)nn34)c2)nc1` [Compound A36, 3-{3-[5-(3-methoxypropoxy)pyrimidin-2-yl]benzyl}-6-(1-methyl-1H-pyrazol-4-yl)-1,2,4-triazolo[4,3-b]pyridazine], the IC50 in assay [2] fell in the range of 1 to 100 nM.
Same read-out and setting: then `CN1CCN(CCOc2cnc(-c3cccc(Cc4nnc5ccc(-c6cnn(C)c6)nn45)c3)nc2)CC1` [Compound A37, 3-(3-{5-[2-(4-methylpiperazin-1-yl)ethoxy]pyrimidin-2-yl}benzyl)-6-(1-methyl-1H-pyrazol-4-yl)-1,2,4-triazolo[4,3-b]pyridazine], with 1 to 100 nM; and `CN1CCC(COc2cnc(-c3cccc(C(F)(F)c4nnc5ccc(-c6cnn(C)c6)nn45)c3)nc2)CC1` [Compound A42, 3-(difluoro-{3-[5-(1-methylpiperidin-4-ylmethoxy)pyrimidin-2-yl]-phenyl}methyl)-6-(1-methyl-1H-pyrazol-4-yl)-1,2,4-triazolo[4,3-b]pyridazine], with 1 to 100 nM; and `Cc1cnc(-c2cccc(Cc3nnc4ccc(-c5cnn(CCO)c5)nn34)c2)nc1` [Compound A44, 2-(4-{3-[3-(5-methyl-pyrimidin-2-yl)benzyl]-1,2,4-triazolo[4,3-b]pyridazin-6-yl}pyrazol-1-yl)ethanol], with 1 to 100 nM.
